# According to patent US8481762B2, “Administration of compounds that increase glutathione levels in the melanocytes for the treatment of canities” (L'Oreal, priority 2004, dated 2013):
# Tested on: human melanocyte line WM35
# Details: wild-type WM35 treated 24 h before H2O2 stress; compared with clone-2 line
# Method: To carry out the test, the cells are inoculated at the density of 2.5×10^4 cells/well and then treated with the compounds to be evaluated:
# a—1:1 mixture containing 4 μg/ml of cafestol and kahweol;
# After 24 h, the cells are exposed to a stress induced by H2O2.
# The cell viability is measured 24 h after the stress with the aid of 2′,7′-dichlorodihydrofluoresceine diacetate (H2DCFDA; D399, Molecular Probes).
structure (smiles),measurement,value
Cc1c(-c2cnccn2)ssc1=S [oltipraz],effect on sensitivity of the wild-type line to H2O2 induced stress,limits the sensitivity of the cells to H2O2 induced stress
